The source of these data is patent publication US4411890A, “Synthetic peptides having pituitary growth hormone releasing activity” (Beckman Instruments, Inc., priority 1981, dated 1983).

The subject of one assay is pituitaries. In words: In vitro growth hormone release study (incubated rat pituitaries, GH by RIA). The following applies: GH released at I3, I4 (I5) minus P2, mean ± SEM. The class given is cell-based. Here is the method:
Female rats of the CD-1 strain were housed in a constant temperature room at 24° C. with 14 hours light and 10 hours darkness. The rats were fed Purina brand rat chow ab libitum. All studies were started between 0800 and 1000 hours.
Pituitaries were removed from 20 day old female rats. In each polytetrafluoroethylene beaker (10 ml) was incubated two pituitaries at 36° C. in 1 ml of lactated Ringer's solution in a Dubnoff Shaker (90 cycles/min.). All medium in each beaker was removed each hour (e.g., P1, P2, I3, I4, I5) and then fresh medium was added back to each beaker. Each medium removed was assayed for GH, in duplicate, by a standard radioimmunoassay (RIA).
The growth hormone agonist of Example 1 was not added to the incubation mediums employed during the first hour of the incubation period (P1) or to the incubation mediums employed during the second hour of the incubation period (P2). The growth hormone agonist of Example 1 was dissolved in dimethylsulfoxide (DMSO; 10:1, agonist:DMSO), added to each incubation medium employed during the third hour of the incubation period (I3), to each medium employed during the fourth hour of the incubation period (I4), and, when performed, to each medium employed during the fifth hour of the incubation period (I5). The release of growth hormone was recorded as ΔGH and calculated by subtracting the amount of GH released at P2 from that released at I3, I4, and, when performed, I5. The agonist activity was determined from the release at I3, I4, and, when performed, I5. The mean of the ΔGH values obtained from the three beakers per dosage level measured at I3, I4, and, when performed, I5 are set forth in Table VI.

The test system of assay [1] is Female rats of The CD-1 strain. Nature of the assay: In vivo growth hormone release study (subcutaneous injection, serum GH by RIA). The following applies: serum GH about 15 minutes after injection, 21 day old female rats, mean ± SEM. Details: species or system rat. As for the experimental part: Female rats of The CD-1 strain were housed in a constant temperature room at 24° C. with 14 hours light and 10 hours darkness. The rats were fed Purina brand rat chow ab libitum. All studies were started between 0800 and 1000 hours. Each female rat (21 days old; eight rats per dosage level shown in Table XXVI) was injected subcutaneously with a desired dosage of the peptide of Example 6. Approximately 15 minutes after injection, the rat was guillotined. A blood sample was collected from the guillotined rat. The blood sample was centrifuged and a serum sample was collected therefrom. Each serum sample was assayed for GH, in duplicate, by a standard radioimmunoassay (RIA).

[2] abbreviates: dosage 1 ng/ml incubation medium.
Setting [3] is: dosage 3 ng/ml incubation medium.
The mark [4] stands for this setting: dosage 10 ng/ml incubation medium.
Setting [5] is: dosage 1.0 μg/ml serum (so in the source).
Setting [6] is: dosage 3.0 μg/ml serum (so in the source).
Where [7] appears, read: dosage 10.0 μg/ml serum (so in the source).
The mark [8] stands for this setting: dosage 30.0 μg/ml serum (so in the source).
[9] abbreviates: dosage 30 ng/ml incubation medium.
Setting [10] is: dosage 0.3 μg/ml serum (so in the source).
[11] abbreviates: dosage 300 ng/ml incubation medium.
Where [12] appears, read: dosage 1,000 ng/ml incubation medium.
The mark [13] stands for this setting: dosage 3,000 ng/ml incubation medium.
Where [14] appears, read: dosage 30,000 ng/ml incubation medium.
Setting [15] is: dosage 100 ng/ml incubation medium.

Where a SMILES comes first, the peptide text is derived from it.

Consider `C[C@H](NC(=O)[C@@H](Cc1c[nH]c2ccccc12)NC(=O)[C@@H](N)Cc1c[nH]cn1)C(=O)N[C@@H](Cc1c[nH]c2ccccc12)C(=O)N[C@H](Cc1ccccc1)C(=O)N[C@@H](CCCNC(=N)N)C(N)=O` [H2 -His-D-Trp-Ala-Trp-D-Phe-Arg-NH2] (HELM PEPTIDE1{H.[dW].A.W.[dF].R.[am]}$$$$V2.0), for which the ΔGH is listed as 805 ± 152 ng/ml incubation medium in the assay with pituitaries (setting [2]); 997 ± 249 ng/ml incubation medium with pituitaries (setting [3]); 2,064 ± 346 ng/ml incubation medium in the assay on pituitaries (setting [4]); 9.2 ± 3.4 ng/ml subcutaneous in assay [1] (setting [5]); 32.2 ± 5.5 ng/ml subcutaneous in assay [1] (setting [6]); 87.5 ± 31 ng/ml subcutaneous in assay [1] (setting [7]). Besides, the ΔGH in assay [1] (setting [8]) is 31.1 ± 3.4 ng/ml subcutaneous.

In the case of `C[C@H](NC(=O)[C@@H](Cc1c[nH]c2ccccc12)NC(=O)[C@@H](N)Cc1c[nH]cn1)C(=O)N[C@@H](Cc1c[nH]c2ccccc12)C(=O)N[C@H](Cc1ccccc1)C(=O)N[C@@H](CCC(N)=O)C(N)=O` [H2 -His-D-Trp-Ala-Trp-D-Phe-Gln-NH2] (HELM PEPTIDE1{H.[dW].A.W.[dF].Q.[am]}$$$$V2.0), the ΔGH in the assay on pituitaries (setting [2]) is 5 ± 136 ng/ml incubation medium; in the assay on pituitaries (setting [3]), 140 ± 168 ng/ml incubation medium; with pituitaries (setting [4]) it was 275 ± 66 ng/ml incubation medium; in assay [1] (setting [5]), 1.4 ± 0.9 ng/ml subcutaneous; in assay [1] (setting [6]), 3.8 ± 2.1 ng/ml subcutaneous; in assay [1] (setting [7]), 32.1 ± 11.4 ng/ml subcutaneous.

In the case of `C[C@H](NC(=O)[C@@H](Cc1c[nH]c2ccccc12)NC(=O)[C@@H](N)Cc1c[nH]cn1)C(=O)N[C@@H](Cc1c[nH]c2ccccc12)C(=O)N[C@H](Cc1ccccc1)C(=O)N[C@@H](CCC(=O)O)C(N)=O` [H2 -His-D-Trp-Ala-Trp-D-Phe-Glu-NH2] (HELM PEPTIDE1{H.[dW].A.W.[dF].E.[am]}$$$$V2.0), the ΔGH with pituitaries (setting [2]) was -78 ± 72 ng/ml incubation medium; with pituitaries (setting [3]) it was -294 ± 75 ng/ml incubation medium; with pituitaries (setting [4]), -243 ± 71 ng/ml incubation medium; in the assay with pituitaries (setting [9]), 117 ± 41 ng/ml incubation medium; in assay [1] (setting [5]), 0.10 ± 0 ng/ml subcutaneous; in assay [1] (setting [6]), 1.50 ± 0.56 ng/ml subcutaneous. Also, the ΔGH in assay [1] (setting [7]) turned out to be 1.4 ± 0.78 ng/ml subcutaneous; in assay [1] (setting [8]) it was 8.06 ± 2.68 ng/ml subcutaneous.

For the compound `C[C@H](NC(=O)[C@@H](Cc1c[nH]c2ccccc12)NC(=O)[C@@H](N)Cc1c[nH]cn1)C(=O)N[C@@H](Cc1c[nH]c2ccccc12)C(=O)N[C@H](Cc1ccccc1)C(=O)N[C@@H](CCCCN)C(N)=O` [H2 -His-D-Trp-Ala-Trp-D-Phe-Lys-NH2] (HELM PEPTIDE1{H.[dW].A.W.[dF].K.[am]}$$$$V2.0), the ΔGH is recorded as 955 ± 272 ng/ml incubation medium with pituitaries (setting [2]); 1,603 ± 305 ng/ml incubation medium in the assay on pituitaries (setting [3]); 2,244 ± 173 ng/ml incubation medium in the assay with pituitaries (setting [4]); 2,198 ± 358 ng/ml incubation medium with pituitaries (setting [9]); 6 ± 4 ng/ml subcutaneous in assay [1] (setting [10]); 36 ± 15 ng/ml subcutaneous in assay [1] (setting [5]). Moreover, the ΔGH in assay [1] (setting [6]) turned out to be 66 ± 15 ng/ml subcutaneous; in assay [1] (setting [7]), 100 ± 19 ng/ml subcutaneous; in assay [1] (setting [8]), 122 ± 4 ng/ml subcutaneous.

For `CSCC[C@H](NC(=O)[C@@H](Cc1ccccc1)NC(=O)[C@H](Cc1c[nH]c2ccccc12)NC(=O)[C@H](C)NC(=O)[C@@H](Cc1c[nH]c2ccccc12)NC(=O)[C@@H](N)Cc1ccc(O)cc1)C(N)=O` [H2 -Tyr-D-Trp-Ala-Trp-D-Phe-Met-NH2] (HELM PEPTIDE1{Y.[dW].A.W.[dF].M.[am]}$$$$V2.0), the ΔGH in the assay with pituitaries (setting [9]) was 456 ± 151 ng/ml incubation medium; in the assay with pituitaries (setting [11]) it was 1,260 ± 245 ng/ml incubation medium; with pituitaries (setting [12]), 1,832 ± 441 ng/ml incubation medium.

As for `C[C@H](NC(=O)[C@@H](Cc1c[nH]c2ccccc12)NC(=O)[C@@H](N)Cc1ccc(O)cc1)C(=O)N[C@@H](Cc1c[nH]c2ccccc12)C(=O)N[C@H](Cc1ccccc1)C(=O)N[C@@H](Cc1ccccc1)C(N)=O` [H2 -Tyr-D-Trp-Ala-Trp-D-Phe-Phe-NH2] (HELM PEPTIDE1{Y.[dW].A.W.[dF].F.[am]}$$$$V2.0), the ΔGH in the assay with pituitaries (setting [9]) is 10 ± 57 ng/ml incubation medium; in the assay on pituitaries (setting [11]) it was 330 ng/ml incubation medium; in the assay with pituitaries (setting [13]), 710 ng/ml incubation medium; with pituitaries (setting [14]), 1,484 ± 135 ng/ml incubation medium.

In the case of `C[C@H](NC(=O)[C@@H](Cc1c[nH]c2ccccc12)NC(=O)[C@@H](N)Cc1ccc(O)cc1)C(=O)N[C@@H](Cc1c[nH]c2ccccc12)C(=O)N[C@H](Cc1ccccc1)C(=O)N[C@H](C(N)=O)[C@@H](C)O` [H2 -Tyr-D-Trp-Ala-Trp-D-Phe-Thr-NH2] (HELM PEPTIDE1{Y.[dW].A.W.[dF].T.[am]}$$$$V2.0), the ΔGH with pituitaries (setting [4]) is given as 94 ± 69 ng/ml incubation medium; in the assay with pituitaries (setting [15]) it was 650 ± 320 ng/ml incubation medium; in the assay with pituitaries (setting [12]), 2,167 ± 591 ng/ml incubation medium; with pituitaries (dosage 10,000 ng/ml incubation medium), 2,957 ± 834 ng/ml incubation medium.

Regarding `NC(=O)CC[C@H](NC(=O)[C@@H](Cc1ccccc1)NC(=O)[C@H](Cc1c[nH]c2ccccc12)NC(=O)CNC(=O)[C@@H](Cc1c[nH]c2ccccc12)NC(=O)[C@@H](N)Cc1ccc(O)cc1)C(N)=O` [H2 -Tyr-D-Trp-Gly-Trp-D-Phe-Gln-NH2] (HELM PEPTIDE1{Y.[dW].G.W.[dF].Q.[am]}$$$$V2.0), the ΔGH in the assay with pituitaries (setting [9]) was 103 ± 248 ng/ml incubation medium; in the assay with pituitaries (setting [15]), 167 ng/ml incubation medium; in the assay on pituitaries (setting [12]), 1,092 ng/ml incubation medium.

As to “H2 -3-N-Me-His-D-Trp-Ala-Trp-D-Phe-Lys-NH2”, the ΔGH is on record as 165 ± 136 ng/ml incubation medium in the assay with pituitaries (setting [2]), 1,857 ± 254 ng/ml incubation medium with pituitaries (setting [4]), 45.0 ± 10 ng/ml subcutaneous in assay [1] (setting [10]) and 128 ± 16 ng/ml subcutaneous in assay [1] (setting [7]).

Turning to “H2 -His-D-Trp-Ala-Trp-D-Phe-Lys-NHCH2 CH3”, the ΔGH is on record as 726 ± 115 ng/ml incubation medium in the assay on pituitaries (setting [2]), 1,688 ± 300 ng/ml incubation medium with pituitaries (setting [4]), 13.0 ± 5 ng/ml subcutaneous in assay [1] (setting [10]) and 119 ± 12 ng/ml subcutaneous in assay [1] (setting [7]).

In the case of H2 -His-D-Trp-Ala-Trp-D-Phe-Lys-OH, the ΔGH is given as 467 ± 178 ng/ml incubation medium in the assay on pituitaries (setting [2]); 330 ± 167 ng/ml incubation medium in the assay with pituitaries (setting [4]); 2,441 ± 353 ng/ml incubation medium in the assay with pituitaries (setting [15]); 76 ± 24 ng/ml subcutaneous in assay [1] (setting [6]); 119 ± 25 ng/ml subcutaneous in assay [1] (setting [7]); 226 ± 43 ng/ml subcutaneous in assay [1] (setting [8]).

As to H2 -Tyr-D-Trp-Ala-Trp-D-Phe-Lys-NH2, the ΔGH is on record as 1,346 ± 328 ng/ml incubation medium with pituitaries (setting [9]), 2,160 ± 166 ng/ml incubation medium in the assay on pituitaries (setting [11]), 1,630 ± 135 ng/ml incubation medium in the assay on pituitaries (setting [13]) and 1,318 ± 247 ng/ml incubation medium with pituitaries (setting [14]).
